Data published in patent US5384417A, “Heptitols” (priority 1994, dated 1995).
Like-named read-outs stand apart in the source and are kept apart here.

What was measured:
Type in all cases: biochemical
β-Xylosidase = biological target: T1, β-Xylosidase (Homo sapiens, UniProt Q9H227); experiment: inhibition of human liver β-xylosidase; details: 1 mM inhibitor; read-out: % Inhibition of Glycosidase Activity, β-Xylosidase
T1 construct: Human liver glycosidases were assayed; from tissue; host or cells: human liver
T1 sequence (Q9H227 1-469): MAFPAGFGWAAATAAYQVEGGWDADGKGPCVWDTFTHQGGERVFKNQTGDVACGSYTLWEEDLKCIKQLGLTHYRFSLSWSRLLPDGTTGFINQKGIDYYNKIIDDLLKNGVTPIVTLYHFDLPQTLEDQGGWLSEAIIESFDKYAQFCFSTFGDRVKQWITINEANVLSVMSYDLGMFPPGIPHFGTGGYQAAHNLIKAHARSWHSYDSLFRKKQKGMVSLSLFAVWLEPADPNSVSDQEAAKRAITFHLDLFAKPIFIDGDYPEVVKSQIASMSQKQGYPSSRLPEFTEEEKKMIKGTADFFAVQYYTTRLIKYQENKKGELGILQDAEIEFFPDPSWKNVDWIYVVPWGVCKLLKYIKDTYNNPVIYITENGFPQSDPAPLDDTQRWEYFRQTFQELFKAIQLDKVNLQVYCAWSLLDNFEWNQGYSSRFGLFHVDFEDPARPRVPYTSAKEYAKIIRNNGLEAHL
Experimental: (§1) Human liver glycosidases were assayed in the absence and presence [1 mM] of each of the potential inhibitors, using the appropriate buffered 4-methylumbelliferyl glycosides as substrates, as previously described.^17 See Table I, below.

α-mannosidases = experiment: inhibition of human liver α-mannosidases (multiple forms taken together); details: for inhibition of α-mannosidases (in words): 1 mM
Experimental: as §1

β-Hexosaminidase = experiment: inhibition of human liver β-hexosaminidase; details: for % Inhibition of Glycosidase Activity, β-Hexosaminidase: 1 mM inhibitor; for inhibition of β-hexosaminidase (in words): 1 mM
Experimental: as §1

α-Arabinosidase = experiment: inhibition of human liver α-arabinosidase; details: 1 mM inhibitor
Experimental: as §1

α-Glucosidase = experiment: inhibition of human liver α-glucosidase; details: 1 mM inhibitor
Experimental: as §1

Golgi α-Mannosidase = biological target: T2, Golgi α-Mannosidase (Homo sapiens, UniProt Q16706); experiment: inhibition of human liver Golgi α-mannosidase; details: 1 mM inhibitor; read-out: % Inhibition of Glycosidase Activity, α-Mannosidase Golgi
T2 construct: Human liver glycosidases were assayed; from tissue; host or cells: human liver
T2 sequence (Q16706 1-1144): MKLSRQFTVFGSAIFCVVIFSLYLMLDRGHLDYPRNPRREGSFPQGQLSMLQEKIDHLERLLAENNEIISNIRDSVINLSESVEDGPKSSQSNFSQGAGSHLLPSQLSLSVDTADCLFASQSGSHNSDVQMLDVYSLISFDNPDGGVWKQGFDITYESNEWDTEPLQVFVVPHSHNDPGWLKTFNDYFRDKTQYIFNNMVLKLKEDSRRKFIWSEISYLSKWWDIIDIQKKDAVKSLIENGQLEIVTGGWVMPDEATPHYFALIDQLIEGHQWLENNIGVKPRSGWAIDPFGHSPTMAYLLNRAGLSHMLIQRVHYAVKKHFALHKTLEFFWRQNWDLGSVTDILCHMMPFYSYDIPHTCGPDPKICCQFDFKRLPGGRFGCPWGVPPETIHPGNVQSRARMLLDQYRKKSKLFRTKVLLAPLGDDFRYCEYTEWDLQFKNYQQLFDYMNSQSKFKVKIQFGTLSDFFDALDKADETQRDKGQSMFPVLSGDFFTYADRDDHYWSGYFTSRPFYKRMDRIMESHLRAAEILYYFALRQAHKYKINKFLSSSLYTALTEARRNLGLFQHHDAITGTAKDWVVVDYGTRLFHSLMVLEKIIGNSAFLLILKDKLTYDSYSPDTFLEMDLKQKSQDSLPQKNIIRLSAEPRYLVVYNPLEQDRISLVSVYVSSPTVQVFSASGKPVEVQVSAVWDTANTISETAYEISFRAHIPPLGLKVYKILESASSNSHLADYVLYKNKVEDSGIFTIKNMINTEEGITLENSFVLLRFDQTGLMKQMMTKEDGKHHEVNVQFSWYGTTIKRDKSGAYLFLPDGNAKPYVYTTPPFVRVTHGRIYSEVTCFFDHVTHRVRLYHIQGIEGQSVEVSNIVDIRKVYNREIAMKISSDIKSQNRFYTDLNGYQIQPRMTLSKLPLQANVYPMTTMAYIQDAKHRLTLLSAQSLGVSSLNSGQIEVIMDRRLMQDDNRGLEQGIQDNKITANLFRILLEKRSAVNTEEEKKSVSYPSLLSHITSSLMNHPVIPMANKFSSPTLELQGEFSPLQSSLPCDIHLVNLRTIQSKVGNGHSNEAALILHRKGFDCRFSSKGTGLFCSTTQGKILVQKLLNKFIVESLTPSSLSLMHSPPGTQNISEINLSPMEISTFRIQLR
Experimental: as §1

β-Mannosidase = biological target: T3, β-Mannosidase (Homo sapiens, UniProt O00462); experiment: inhibition of human liver β-mannosidase; details: read-out: % Inhibition of Glycosidase Activity, β-Mannosidase
T3 construct: Human liver glycosidases were assayed; from tissue; host or cells: human liver
T3 sequence (O00462 18-879): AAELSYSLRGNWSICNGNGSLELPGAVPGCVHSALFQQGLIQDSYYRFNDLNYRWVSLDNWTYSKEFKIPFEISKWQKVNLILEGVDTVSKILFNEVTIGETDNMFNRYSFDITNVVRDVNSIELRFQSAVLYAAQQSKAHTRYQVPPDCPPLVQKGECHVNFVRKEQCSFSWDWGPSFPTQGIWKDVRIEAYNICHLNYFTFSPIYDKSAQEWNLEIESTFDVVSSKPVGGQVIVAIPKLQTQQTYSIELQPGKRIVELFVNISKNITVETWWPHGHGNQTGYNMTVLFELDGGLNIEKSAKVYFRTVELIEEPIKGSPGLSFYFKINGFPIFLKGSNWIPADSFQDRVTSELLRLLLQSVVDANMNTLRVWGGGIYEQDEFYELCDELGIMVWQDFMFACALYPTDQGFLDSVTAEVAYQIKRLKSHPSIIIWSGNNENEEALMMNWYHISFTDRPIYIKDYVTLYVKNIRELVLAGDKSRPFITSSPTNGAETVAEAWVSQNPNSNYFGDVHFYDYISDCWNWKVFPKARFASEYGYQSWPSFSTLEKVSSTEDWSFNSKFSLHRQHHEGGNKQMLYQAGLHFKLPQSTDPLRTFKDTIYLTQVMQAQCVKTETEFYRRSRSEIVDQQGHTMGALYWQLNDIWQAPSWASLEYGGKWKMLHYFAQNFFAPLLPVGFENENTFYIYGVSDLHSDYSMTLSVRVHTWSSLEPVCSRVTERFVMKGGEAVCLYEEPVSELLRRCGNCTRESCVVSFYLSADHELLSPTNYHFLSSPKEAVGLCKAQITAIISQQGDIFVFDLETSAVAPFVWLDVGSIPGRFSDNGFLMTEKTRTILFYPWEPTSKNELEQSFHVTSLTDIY
Experimental: as §1

OC[C@@H](O)[C@H]1NC[C@@H](O)[C@H]1O [DIM (3)]
inhibition at 1000 µM (β-Xylosidase): 45% | inhibition of α-mannosidases (in words) (α-mannosidases): much more potent inhibitor than the piperidine analogues (1) and (2) of all the mannosidases investigated | % Inhibition of Glycosidase Activity, β-Hexosaminidase (β-Hexosaminidase): 28% | % Inhibition of Glycosidase Activity, α-Arabinosidase (α-Arabinosidase): 66% | % Inhibition of Glycosidase Activity, α-Glucosidase (α-Glucosidase): 0% | inhibition at 1000 µM (Golgi α-Mannosidase): 96% | inhibition at 1000 µM (β-Mannosidase; 1 mM inhibitor): 0%

OC[C@H]1NC[C@@H](O)[C@@H](O)[C@@H]1O [DMJ (1), deoxymannojirimycin]
inhibition at 1000 µM (β-Xylosidase): 3% | inhibition of β-hexosaminidase (in words) (β-Hexosaminidase): moderate inhibition of β-hexosaminidase | % Inhibition of Glycosidase Activity, β-Hexosaminidase (β-Hexosaminidase): 55% | % Inhibition of Glycosidase Activity, α-Arabinosidase (α-Arabinosidase): 5% | % Inhibition of Glycosidase Activity, α-Glucosidase (α-Glucosidase): 21% | inhibition at 1000 µM (Golgi α-Mannosidase): 45% | inhibition at 1000 µM (β-Mannosidase): 0%

NC[C@H]1O[C@H]([C@H](O)CO)[C@H](O)[C@@H]1O [Manhepamine (5), 1-amino-2,5-anhydro-1-deoxy-D-glycero-D-talo-heptitol]
inhibition at 1000 µM (β-Xylosidase): 6% | inhibition of α-mannosidases (in words) (α-mannosidases): did not inhibit any of the α-mannosidases | inhibition of α-mannosidases (in words) (α-mannosidases; listed as α-(aminomethyl)-1-deoxy-mannofuranose (5)): relatively inactive against α-mannosidases | inhibition of β-hexosaminidase (in words) (β-Hexosaminidase): weak inhibitory properties towards β-N-acetylhexosaminidase | % Inhibition of Glycosidase Activity, β-Hexosaminidase (β-Hexosaminidase): 46% | % Inhibition of Glycosidase Activity, α-Arabinosidase (α-Arabinosidase): 0% | % Inhibition of Glycosidase Activity, α-Glucosidase (α-Glucosidase): 0% | inhibition at 1000 µM (β-Mannosidase; 1 mM inhibitor): 3%

OC[C@@H](O)[C@H]1N[C@H](CO)[C@@H](O)[C@H]1O [αHomoDIM (4), 2,5-dideoxy-2,5-imino-D-glycero-D-talo-heptitol]
inhibition at 1000 µM (β-Xylosidase): 21% | inhibition of α-mannosidases (in words) (α-mannosidases): still retaining significant inhibitory properties towards α-mannosidases | inhibitory activity against α-mannosidase relative to DMJ (α-mannosidases; compared with DMJ (1)): about twice as effective as DMJ | % Inhibition of Glycosidase Activity, β-Hexosaminidase (β-Hexosaminidase): 0% | % Inhibition of Glycosidase Activity, α-Arabinosidase (α-Arabinosidase): 25% | % Inhibition of Glycosidase Activity, α-Glucosidase (α-Glucosidase): 12% | inhibition at 1000 µM (Golgi α-Mannosidase): 92% | inhibition at 1000 µM (β-Mannosidase; 1 mM inhibitor): 18%

OC[C@H]1N[C@H](CO)[C@@H](O)C(O)[C@@H]1O (stereo partly drawn) [αHomoDMJ (2)]
inhibition at 1000 µM (β-Xylosidase): 0% | inhibition of α-mannosidases (in words) (α-mannosidases): does not affect appreciably the inhibition of the multiple forms of α-mannosidase | selectivity for α-mannosidases (in words) (α-mannosidases; compared with parent compound DMJ (1)): much more selective inhibitor of α-mannosidases than is the parent compound DMJ (1) | inhibition of β-hexosaminidase (in words) (β-Hexosaminidase): abolish the moderate inhibition of β-hexosaminidase | % Inhibition of Glycosidase Activity, β-Hexosaminidase (β-Hexosaminidase): 1% | % Inhibition of Glycosidase Activity, α-Arabinosidase (α-Arabinosidase): 0% | % Inhibition of Glycosidase Activity, α-Glucosidase (α-Glucosidase): 4% | inhibition at 1000 µM (Golgi α-Mannosidase): 56% | inhibition at 1000 µM (β-Mannosidase; 1 mM inhibitor): 0%
